From ChEMBL document CHEMBL4011641, “Prodrugs of Pyrazolo[3,4-d]pyrimidines: From Library Synthesis to Evaluation as Potential Anticancer Agents in an Orthotopic Glioblastoma Model” (J Med Chem, 2017)
≈ marks a conversion by molar mass, not a printed value.

Tests used:
[1] = Antitumor activity against human U87 cells xenografted in nude immunodeficient CD1 mouse assessed as mean survival time at 50 mg/kg, po administered every other day (reference value: 30 day); assay type: functional, U-87MG ATCC
[2] = Half life in PBS buffer at 100 uM at pH 7.4 by UV/LC-MS analysis; assay type: physicochemical
[3] = Half life in methanol at 100 uM by UV/LC-MS analysis; assay type: physicochemical
[4] = Metabolic stability in human liver microsomes assessed as parent compound remaining at 50 uM after 1 hr in presence of NADPH regenerating system by UV/LC-MS analysis; assay type: ADME, microsome; conditions: read-out: Stability
[5] = Drug uptake in cytoplasm of human U87 cells at 20 uM after 2 hrs by UV/LC-MS analysis; assay type: ADME
[6] = Drug uptake in cytoplasm of human U87 cells at 20 uM after 5 hrs by UV/LC-MS analysis; assay type: ADME
Liver carboxylesterase 1 = target: T1, Liver carboxylesterase 1 (Homo sapiens, UniProt P23141); assay: Drug metabolism assessed as human CES1-mediated compound hydrolysis at 10 to 100 uM after 1 hr by UV/HPLC-MS analysis; assay type: ADME
T1 sequence (P23141 whole entry): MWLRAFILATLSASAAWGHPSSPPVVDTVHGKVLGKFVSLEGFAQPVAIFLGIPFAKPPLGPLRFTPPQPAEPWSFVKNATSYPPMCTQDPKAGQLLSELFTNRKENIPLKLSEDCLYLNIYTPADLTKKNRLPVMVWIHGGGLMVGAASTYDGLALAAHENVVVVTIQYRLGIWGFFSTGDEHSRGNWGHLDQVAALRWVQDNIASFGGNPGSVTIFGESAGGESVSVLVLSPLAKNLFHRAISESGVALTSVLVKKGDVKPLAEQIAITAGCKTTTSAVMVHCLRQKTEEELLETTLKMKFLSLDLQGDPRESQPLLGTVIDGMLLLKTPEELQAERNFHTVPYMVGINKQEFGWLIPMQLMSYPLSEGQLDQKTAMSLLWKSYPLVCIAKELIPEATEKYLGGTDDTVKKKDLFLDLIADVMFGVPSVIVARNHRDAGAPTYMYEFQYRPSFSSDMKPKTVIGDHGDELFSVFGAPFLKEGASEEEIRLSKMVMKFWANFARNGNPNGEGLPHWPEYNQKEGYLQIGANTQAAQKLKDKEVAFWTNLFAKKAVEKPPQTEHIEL

[7] = Half life in mouse plasma by UV/LC-MS analysis; assay type: ADME, cell-free
[8] = Metabolic stability in mouse liver microsomes assessed as unmetabolized compound remaining at 50 uM after 1 hr in presence of NADPH regenerating system by UV/LC-MS analysis; assay type: ADME, microsome; conditions: read-out: Stability
[9] = Plasma concentration in BALB/C mouse at 50 mg/kg, ip via bolus administration measured at 24 hrs post dose by UV/LC-MS; assay type: ADME, organism-based
Plasma [10] = assay: Prodrug conversion in BALB/C mouse plasma assessed as N-(3-bromophenyl)-1-(2-chloro-2-phenylethyl)-6-(2-morpholinoethylthio)-1H-pyrazolo[3,4-d]pyrimidin-4-amine formation at 50 mg/kg, ip via bolus administration measured at 24 hrs post dose by UV/LC-MS; assay type: ADME, organism-based; conditions: in vivo
Brain [11] = assay: Drug uptake in BALB/C mouse brain at 50 mg/kg, ip via bolus administration measured at 24 hrs post dose by UV/LC-MS analysis; assay type: ADME, organism-based; conditions: in vivo
[12] = Cmax in BALB/C mouse at 50 mg/kg, ip administered via bolus dose using DMSO formulation measured at 1 to 24 hrs post dose by UV/LC-MS analysis; assay type: ADME, organism-based; design: dose 50 mg/kg, route intraperitoneal; conditions: in vivo
[13] = Tmax in BALB/C mouse at 50 mg/kg, ip administered via bolus dose using DMSO formulation measured at 1 to 24 hrs post dose by UV/LC-MS analysis; assay type: ADME, organism-based; conditions: in vivo
[14] = MRT in BALB/C mouse at 50 mg/kg, ip administered via bolus dose using DMSO formulation measured at 1 to 24 hrs post dose by UV/LC-MS analysis; assay type: ADME, organism-based; conditions: in vivo
[15] = AUC (0 to infinity) in BALB/C mouse at 50 mg/kg, ip administered via bolus dose using DMSO formulation measured at 1 to 24 hrs post dose by UV/LC-MS analysis; assay type: ADME, organism-based; design: dose 50 mg/kg, time infinity, route intraperitoneal; conditions: in vivo
[16] = AUC (0 to 24 hrs) in BALB/C mouse at 50 mg/kg, ip administered via bolus dose using DMSO formulation measured at 1 to 24 hrs post dose by UV/LC-MS analysis; assay type: ADME, organism-based; design: dose 50 mg/kg, time < 24 hr, route intraperitoneal; conditions: in vivo
[17] = Plasma clearance in BALB/C mouse at 50 mg/kg, ip administered via bolus dose using DMSO formulation measured at 1 to 24 hrs post dose by UV/LC-MS analysis; assay type: ADME, organism-based
[18] = Half life in BALB/C mouse at 50 mg/kg, ip administered via bolus dose using DMSO formulation measured at 1 to 24 hrs post dose by UV/LC-MS analysis; assay type: ADME, organism-based; conditions: in vivo
Plasma [19] = assay: Plasma concentration in BALB/C mouse at 50 mg/kg, ip via bolus administration measured at 24 hrs post dose by UV/LC-MS relative to N-(3-bromophenyl)-1-(2-chloro-2-phenylethyl)-6-(2-morpholinoethylthio)-1H-pyrazolo[3,4-d]pyrimidin-4-amine; assay type: ADME, organism-based; conditions: in vivo
[20] = Prodrug activation in human U87 cells assessed as N-(3-bromophenyl)-1-(2-chloro-2-phenylethyl)-6-(2-morpholinoethylthio)-1H-pyrazolo[3,4-d]pyrimidin-4-amine formation at 20 uM up to 25 hrs by UV/LC-MS analysis; assay type: cell-based; conditions: u-87mg atcc
Brain [21] = assay: Prodrug conversion in BALB/C mouse brain assessed as N-(3-bromophenyl)-1-(2-chloro-2-phenylethyl)-6-(2-morpholinoethylthio)-1H-pyrazolo[3,4-d]pyrimidin-4-amine formation at 50 mg/kg, ip via bolus administration measured at 24 hrs post dose by UV/LC-MS; assay type: ADME, organism-based; conditions: in vivo
Kidney [22] = assay: Drug uptake in BALB/C mouse kidney at 50 mg/kg, ip via bolus administration measured at 24 hrs post dose by UV/LC-MS; assay type: ADME, organism-based; conditions: in vivo
Kidney [23] = assay: Prodrug conversion in BALB/C mouse kidney assessed as N-(3-bromophenyl)-1-(2-chloro-2-phenylethyl)-6-(2-morpholinoethylthio)-1H-pyrazolo[3,4-d]pyrimidin-4-amine formation at 50 mg/kg, ip via bolus administration measured at 24 hrs post dose by UV/LC-MS; assay type: ADME, organism-based; conditions: in vivo
[24] = Drug uptake in BALB/C mouse adipose tissue at 50 mg/kg, ip via bolus administration measured at 24 hrs post dose by UV/LC-MS; assay type: ADME, organism-based; conditions: in vivo
[25] = Prodrug conversion in BALB/C mouse adipose tissue assessed as N-(3-bromophenyl)-1-(2-chloro-2-phenylethyl)-6-(2-morpholinoethylthio)-1H-pyrazolo[3,4-d]pyrimidin-4-amine formation at 50 mg/kg, ip via bolus administration measured at 24 hrs post dose by UV/LC-MS; assay type: ADME, organism-based; conditions: in vivo
Liver [26] = assay: Drug uptake in BALB/C mouse liver at 50 mg/kg, ip via bolus administration measured at 24 hrs post dose by UV/LC-MS; assay type: ADME, organism-based; conditions: in vivo
Liver [27] = assay: Prodrug conversion in BALB/C mouse liver assessed as N-(3-bromophenyl)-1-(2-chloro-2-phenylethyl)-6-(2-morpholinoethylthio)-1H-pyrazolo[3,4-d]pyrimidin-4-amine formation at 50 mg/kg, ip via bolus administration measured at 24 hrs post dose by UV/LC-MS; assay type: ADME, organism-based; conditions: in vivo
[28] = target: Tyrosine-protein kinase ABL1 (Homo sapiens, UniProt P00519)
Tyrosine-protein kinase ABL1, sequence (P00519 whole entry): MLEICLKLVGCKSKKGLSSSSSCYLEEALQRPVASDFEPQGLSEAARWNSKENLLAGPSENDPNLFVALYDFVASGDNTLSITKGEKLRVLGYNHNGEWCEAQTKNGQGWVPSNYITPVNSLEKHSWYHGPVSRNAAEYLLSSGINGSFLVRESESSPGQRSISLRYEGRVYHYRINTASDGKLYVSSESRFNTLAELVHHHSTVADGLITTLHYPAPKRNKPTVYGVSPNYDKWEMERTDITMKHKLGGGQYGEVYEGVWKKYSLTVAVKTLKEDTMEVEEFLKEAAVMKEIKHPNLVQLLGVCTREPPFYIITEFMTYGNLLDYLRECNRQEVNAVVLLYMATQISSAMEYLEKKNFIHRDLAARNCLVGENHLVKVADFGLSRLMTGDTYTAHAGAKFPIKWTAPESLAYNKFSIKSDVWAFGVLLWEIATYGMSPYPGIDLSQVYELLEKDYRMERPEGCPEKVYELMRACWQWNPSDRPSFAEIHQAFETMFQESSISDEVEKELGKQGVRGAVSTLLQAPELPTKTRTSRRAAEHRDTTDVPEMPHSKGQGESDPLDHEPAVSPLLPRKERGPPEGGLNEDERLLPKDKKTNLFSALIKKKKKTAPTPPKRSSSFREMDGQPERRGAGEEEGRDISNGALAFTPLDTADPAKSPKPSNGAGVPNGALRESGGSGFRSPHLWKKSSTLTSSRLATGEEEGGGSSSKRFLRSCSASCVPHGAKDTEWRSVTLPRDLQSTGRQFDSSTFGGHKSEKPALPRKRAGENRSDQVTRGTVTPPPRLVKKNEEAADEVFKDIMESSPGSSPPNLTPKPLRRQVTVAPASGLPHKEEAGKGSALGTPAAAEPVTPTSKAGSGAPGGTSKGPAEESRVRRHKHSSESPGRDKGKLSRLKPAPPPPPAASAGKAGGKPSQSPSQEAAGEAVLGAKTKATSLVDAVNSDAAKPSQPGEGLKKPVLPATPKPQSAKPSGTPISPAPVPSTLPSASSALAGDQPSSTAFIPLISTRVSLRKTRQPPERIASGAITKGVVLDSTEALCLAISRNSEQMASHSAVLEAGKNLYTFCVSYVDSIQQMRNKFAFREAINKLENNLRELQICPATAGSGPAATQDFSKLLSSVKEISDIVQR
Description: Inhibition of human wild type full length N-terminal GST/6His-tagged ABL (P118 to S535 residues) expressed in Sf9 cells using abltide as substrate after 5 mins in presence of [gamma-32P]ATP by scintillation counting

cells [29] = conditions: Homo sapiens, U-87 MG, 24 h
Description: Cytotoxicity against human U87 cells assessed as reduction in cell viability after 24 hrs by trypan blue assay

cells [30] = conditions: Homo sapiens, U-87 MG, 48 h
Description: Cytotoxicity against human U87 cells assessed as reduction in cell viability after 48 hrs by trypan blue assay

cells [31] = conditions: Homo sapiens, U-87 MG, 72 h
Description: Cytotoxicity against human U87 cells assessed as reduction in cell viability after 72 hrs by trypan blue assay

physchem [32] = conditions: PAMPA
Description: Apparent permeability at 500 uM after 5 hrs by Gastro-intestinal-based PAMPA

physchem [33] = conditions: PAMPA; remark: listed apart in the source
Description: Apparent permeability at 500 uM after 5 hrs by Blood-Brain Barrier-based PAMPA

physchem [34] = conditions: aqueous
Description: Aqueous solubility of compound at 1 mg after 24 hrs by UV/LC-MS analysis

[35] = target: Proto-oncogene tyrosine-protein kinase Src (Homo sapiens, UniProt P12931); assay: biochemical
Proto-oncogene tyrosine-protein kinase Src, sequence (P12931 2-536 limits assumed): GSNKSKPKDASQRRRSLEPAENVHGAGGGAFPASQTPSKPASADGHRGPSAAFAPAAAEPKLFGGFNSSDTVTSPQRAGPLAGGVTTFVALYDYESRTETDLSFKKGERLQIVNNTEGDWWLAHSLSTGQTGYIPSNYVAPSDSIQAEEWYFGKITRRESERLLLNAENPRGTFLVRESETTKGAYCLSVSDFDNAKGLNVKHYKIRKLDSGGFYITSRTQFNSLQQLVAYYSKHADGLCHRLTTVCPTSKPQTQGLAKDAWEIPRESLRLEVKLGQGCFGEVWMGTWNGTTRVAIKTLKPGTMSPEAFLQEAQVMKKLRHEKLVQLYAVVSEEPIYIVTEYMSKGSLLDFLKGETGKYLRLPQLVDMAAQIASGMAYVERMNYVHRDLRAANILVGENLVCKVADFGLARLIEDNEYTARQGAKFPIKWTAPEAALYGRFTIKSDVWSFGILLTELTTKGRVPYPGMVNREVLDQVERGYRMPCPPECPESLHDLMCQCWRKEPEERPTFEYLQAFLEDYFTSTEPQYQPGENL
Description: Inhibition of human wild type full length N-terminal GST/6His-tagged SRC (M1 to L536 residues) expressed in baculovirus infected Sf9 cells using src peptide as substrate after 5 mins in presence of [gamma-32P]ATP by scintillation counting method

CN1CCN(CCOC(=O)N(c2cccc(Br)c2)c2nc(SCCN3CCOCC3)nc3c2cnn3CC(Cl)c2ccccc2)CC1 (stereo unspecified)
MST [1]: 49 days
half-life at 100 µM [2]: > 48 h
half-life at 100 µM [3]: > 48 h
remaining at 1 h, 50 µM [4]: 93.6%
Drug uptake [5]: Active
Drug uptake [6]: Active
Drug metabolism (Liver carboxylesterase 1): Metabolite_Notdetected
half-life [7]: 1.16 h
remaining at 1 h, 50 µM [8]: 93.1%
concentration at 24 h [9]: 5.4 µM
Drug metabolism (Plasma [10]): 3.3 nmol/mL
Drug uptake (Brain [11]): 6.4 nmol/g
Cmax [12]: 8.78 µM
Tmax [13]: 1 h
MRT [14]: 33.3 h
AUC(0-inf) [15]: 265 µM·h
AUC(0-t) at 24 h [16]: 136 µM·h
CL/F [17]: 0.14 mL/min
half-life [18]: 23.8 h
fold change (FC) (Plasma [19]): 2
Drug metabolism [20]: Metabolite_Detected
Drug metabolism (Brain [21]): 5.2 nmol/g
Drug uptake (Kidney [22]): 6.8 nmol/g
Drug metabolism (Kidney [23]): 2.6 nmol/g
Drug uptake [24]: 1.8 nmol/g
Drug metabolism [25]: 20.5 nmol/g
Drug uptake (Liver [26]): 0.8 nmol/g
Drug metabolism (Liver [27]): 3.6 nmol/g
Ki [28]: > 100 µM
IC50 (cells [29]): 7.5 µM
IC50 (cells [30]): 5.2 µM
IC50 (cells [31]): 1.8 µM
Papp at 5 h, 500 µM (physchem [32]): 2.13 ×10⁻⁶ cm/s
Papp at 5 h, 500 µM (physchem [33]): 2.91 ×10⁻⁶ cm/s
solubility at 24 h (physchem [34]): 8.7 µg/mL (≈ 11.7 µM)
Ki [35]: > 100 µM
